Among the data in US11820773B2, “Tricyclic compounds” (ALIGOS THERAPEUTICS, INC., priority 2020, dated 2023) are EC50 values, retold here.

This test has as its system HBV. Description: HBV-DNA antiviral assay using HepG2.117 cells (intracellular HBV DNA by qPCR). The format is cell-based, genotype D HBV. The conditions noted are these: HBV DNA inhibition, 3 days incubation, 2% DMSO. The method, boiled down: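 HepG2.117 cells (stable genotype D HBV, Tet-off) seeded without doxycycline, treated next day with 9-point 4-fold dilutions in 2% DMSO for 3 days at 37° C. Intracellular HBV DNA quantified by qPCR against a standard curve; viability by CellTiter-Glo ATP. EC50, EC90, CC50 from variable-slope dose-response fits versus DMSO control.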
A general note: In qPCR the cycle at which signal appears reflects the starting amount.

One may read the EC50 as the concentration giving half of the maximal effect. Low values mean greater potency, high ones weaker potency. Molecule `Cn1nnc(-c2ccc(-n3c(=O)c4c(n5ncc(Cc6ccccc6)c35)CN(C(=O)c3ccc(Br)c(Cl)c3)CC4)cc2)n1` [Compound 10, 5-benzyl-12-(4-bromo-3-chloro-benzoyl)-7-[4-(2-methyltetrazol-5-yl)phenyl]-2,3,7,12-tetrazatricyclo[7.4.0.0^2,6]trideca-1(9),3,5-trien-8-one] had an EC50 of less than 50 nM.
`CNc1n[nH]c2cc(-n3c(=O)c4c(n5ncc(CC(C)C)c35)CN(C(=O)c3ccc(Br)c(Cl)c3)[C@@H](C)C4)ccc12` (stereo in doubt) [Compound 57b, rac-(11S)-12-(4-bromo-3-chloro-benzoyl)-5-isobutyl-11-methyl-7-[3-(methylamino)-1H-indazol-6-yl]-2,3,7,12-tetrazatricyclo[7.4.0.0^2,6]trideca-1(9),3,5-trien-8-one]: where the note is “Hepatitis B virus, 72 h”, the EC50 lay within 50 to 500 nM.
